In patent publication US6251903A, “Alkyl, azido, alkoxy, and fluoro-substituted and fused quinoxalinediones and the use thereof as glycine receptor antagonist” (priority 2000, dated 2001):
Where two headings read alike, the source gives them in different places.

How the values were obtained:
[1] = biological target: T1, glycine binding site of the NMDA receptor (Rattus norvegicus, UniProt P35439); assay: 1 μM glycine-stimulated [3H]-MK801 binding assay, brain membrane homogenates
T1 construct: rat brain membrane homogenates that are enriched in NMDA receptors; tissue Pel-Freez, Rogers, Arkansas (frozen rat brains); host or cells: rat brain membrane homogenate
Experimental: This assay takes advantage of the dependence of the binding of [^3 H]-MK801 to the PCP receptor inside the pore of the NMDA channel on the presence of both glutamate and glycine. In the absence of glycine, but in the presence of glutamate, [^3 H]-MK801 cannot bind effectively to the PCP receptor because the NMDA channel remains closed and access of [^3 H]-MK801 to the PCP receptor inside the closed channel pore is severely restted.
The assay is conducted using rat brain membrane homogenates that are enriched in NMDA receptors. The membranes are prepared as follows. Frozen rat brains (obtained from Pel-Freez, Rogers, Arkansas) are homogenized in 15 volumes (w/v) of ice cold 0.32 M sucrose. The homogenate is spun at 1,000×g for ten minutes. The supernatant is collected and spun for 20 minutes at 44,000×g. The pellet is suspended in 15 volumes of water (relative to original brain weight). The homogenate is again spun at 44,000×g for twenty minutes. The pellet is resuspended in 5 volumes of water and the suspension is freeze-thawed 2 times. After the final thaw cycle, the suspension is brought to 15 volumes with water and spun at 44,000×g for twenty minutes. The pellet is resuspended in 5 volumes of ice-cold 10 mM HEPES, and is titrated to pH 7.4 with KOH containing 0.04% Triton X-100. Membranes are incubated with the Triton/HEPES buffer at 37° C. for 15 minutes. The volume is then brought to 15 with ice-cold 10 mM HEPES, pH 7.4, and spun/washed three times with spins of 44,000×g between washes. The final pellet is suspended in three volumes of 50 mM HEPES, pH 7.4, and the protein concentration is determined with a standard dye-binding protein assay (Bio-Rad, Richmond, Calif.). The suspension is stored at -80° C. until used. Only HPLC grade water is used for all buffers and suspensions/washings. The extensive washings are necessary to remove as much endogenous glycine from the membrane preparation as possible.
Nonspecific binding is defined as the difference in binding that occurs in the absence or presence of-PCP (final concentration: 100 μM). To determine the effect of 1 μM glycine on the binding of [^3 H]-MK801, bound radioactivity in the presence of 10 μM glutamate alone (final concentration) is subtracted from the bound radioactivity in the presence of both 10 μM glutamate and 1 μM glycine (final concentration). A 500 nM concentration (final) of 5,7-dichlorokynurenic (DCK) acid is added to all assay tubes. This concentration of the glycine antagonist DCK "buffers" most of the residual endogenous glycine that is not removed by the extensive washing steps that are carried out during the membrane preparation procedure.
The assays are incubated for 120 minutes at room temperature after which time the membrane-bound radioactivity is isolated from the free radioactivity by vacuum filtration through Whatman glass fiber filters that had been pretreated with 0.3% polyethyleneimine. Filtration is accomplished using a Brandel,48 well cell harvester. Filtered membranes are washed three times with 3 mL each of ice cold buffer. Filters are transferred to scintillation vials and 5 mL of scintillation cocktail is added. The vials are shaken overnight and the radioactivity is counted by liquid scintillation spectroscopy. The assays are done in triplicate and all experiments are conducted at least three times.

glycine binding site = glycine binding site (Rattus norvegicus, UniProt P35439); assay: affinity for the glycine binding site / glycine/NMDA receptor (Ki; method not stated); details: for times less active than 6,7-dichloro-5-nitro-1,4-dihydroquinoxaline-2,3-dione at the glycine/NMDA receptor: from Ki
Source text: The binding affinities of quinoxaline-2,3-diones at NMDA receptor glycine sites also were estimated by electrophysiological assays with either cloned rat NMDA receptors expressed in Xenopus oocytes, or non-NMDA receptors expressed in oocytes by whole rat brain poly(A)^+ RNA. […] For NMDA receptors Ki values were approximated by averaging values at three subtype combinations (NR1A/NR2A, NR1A/NR2B, and NR1A/NR2C).

mice = assay: anticonvulsant activity in maximum electroshock seizure (MES) experiments in mice; assay type: in vivo, male Swiss/Webster mice; details: for ED50 / ED100: Mus musculus; for ED100 / ED50 (MES) / IV peak of action: Table IV
Experimental: The seizure stimulus parameters were: 50 mA, 60 Hz, rectangular pulse, width 0.8 msec, duration 200 msec. Tonic hind limb extension observed after application of the electrical stimulus was recorded as occurrence of seizure. The drug was applied i.v. as an aqueous Tris (Tromethamine) solution.

[2] = penetration of the blood/brain barrier, access to the central nervous system; assay type: in vivo; details: inferred from Ki and MES ED50
neurons = details: literature; cited from earlier work
[3] = test system: non-NMDA glutamate receptors; details: literature; cited from earlier work
[4] = test system: glycine binding site of the NMDA receptor; details: literature; cited from earlier work
animals = details: literature; cited from earlier work
[5] = cited from earlier work
[6] = read-out: Ki, affinity for the glycine/NMDA receptor
[7] = iv, Table III, i.v. injection, read-out: ED50 (MES)
[8] = route not stated, read-out: ED50 as an anticonvulsant in the MES experiment in mice
[9] = Table II, footnote b, from binding assays, read-out: Ki

For `Cc1c(Cl)cc2nc(O)c(O)nc2c1N` [NH2 Me Cl H, 5-Amino-7-chloro-1,4-dihydro-6-methylquinoxaline-2,3-dione], the Ki [1] was 500 nM.

For `O=c1[nH]c2c(F)c(Cl)c(F)c([N+](=O)[O-])c2[nH]c1=O` [NO2 F Cl F, 7-Chloro-6,8-difluoro-5-nitro-1,4-dihydroquinoxaline-2,3-dione], the “times less active than 6,7-dichloro-5-nitro-1,4-dihydroquinoxaline-2,3-dione at the glycine/NMDA receptor” value (glycine binding site) was “about 50 times”, the Ki (glycine binding site; [6]) was 170 nM and the ED50 (mice; [7]) was 2 to 3 mg/kg. For the same molecule, the ED100 (mice; i.v.) was 5 mg/kg, the ED50 (mice; [8]) was 2 to 3 mg/kg and the “ED50 (MES)” value (mice; i.v.) was 2 to 3 mg/kg. The “IV peak of action” value (mice; i.v.) was 2 to 5 min, the “% protection after 60 min.” value (mice; i.v., 5 mg/kg) was 50% and the “times better in crossing the blood brain barrier than 6,7-dichloro-5-nitro-1,4-dihydroquinoxaline-2,3-dione” value [2] was “about 100 times”.

In the case of `CNC1(c2ccccc2Cl)CCCCC1=O` (stereo not shown) [ketamine], the “neuroprotective efficacy” value (neurons) is given as “have neuroprotective efficacy both in vitro and in vivo”.

In the case of `NS(=O)(=O)c1cccc2c1c([N+](=O)[O-])cc1nc(O)c(O)nc12` [2,3-dihydroxy-6-nitro-7-sulfamoyl-benzo (F) quinoxaline], the “neuroprotective efficacy” value (neurons) is given as “neuroprotective in cerebral ischemia models” and the “antagonism at kainate / AMPA / non-NMDA receptors” value [3] is given as “AMPA selective”.

For `COc1ccc2c(c1)[C@]13CCCC[C@@H]1[C@H](C2)N(C)CC3` [dextromethorphan], the “neuroprotective efficacy” value (neurons) is listed as “have neuroprotective efficacy both in vitro and in vivo”.

Molecule `CCc1cc2nc(O)c(O)nc2c([N+](=O)[O-])c1Cl` [NO2 Cl Et H, 6-Chloro-7-ethyl-5-nitro-1,4-dihydroquinoxaline-2,3-dione] has a Ki [1] of 40 nM.

In the case of `O=c1[nH]c2cc([N+](=O)[O-])cc([N+](=O)[O-])c2[nH]c1=O` [5,7-dinitro-1,4-dihydroquinoxaline-2,3-dione], the “glycine site antagonism or affinity (words)” value [4] is given as “potent-antagonist of the strychnine insensitive glycine receptor”, the “in vivo activity” value (animals) is given as “has anticonvulsant properties” and the “penetration of the blood/brain barrier (words)” value ([5]; literature) is given as “poor access to the central nervous system”.

In the case of `COc1c(Cl)cc2[nH]c(=O)c(=O)[nH]c2c1[N+](=O)[O-]` [NO2 OMe Cl H, 7-Chloro-6-methoxy-5-nitro-1,4-dihydroquinoxaline-2,3-dione], the Ki [1] is reported as 450 nM.

Molecule `CCCCOc1c(F)cc2nc(O)c(O)nc2c1[N+](=O)[O-]` [NO2 OBu-n F H, 7-Fluoro-6-(n-butoxy)-5-nitro-1,4-dihydroquinoxaline-2,3-dione] has a Ki [1] of 6500 nM.

`Cc1c(Br)cc2nc(O)c(O)nc2c1[N+](=O)[O-]` [NO2 Me Br H, 7-Bromo-6-methyl-5-nitro-1,4-dihydroquinoxaline-2,3-dione] gave a Ki [1] of 40 nM.

For `O=C(O)c1cc2ccccc2[nH]1` [indole-2-carboxylic acid], the “glycine site antagonism or affinity (words)” value [4] is given as “relatively high receptor binding affinity in vitro” and the “penetration of the blood/brain barrier (words)” value ([5]; literature) is given as “cannot penetrate the blood/brain barrier”.

For `NC1CCN(O)C1=O` (racemic) [HA-966], the “glycine site antagonism or affinity (words)” value [4] is listed as “partial agonist with only micromolar affinity for the glycine binding site” and the “penetration of the blood/brain barrier (words)” value ([5]; literature) is listed as “sufficiently penetrates the blood/brain barrier”.

In the case of `CCc1cc2[nH]c(=O)c(=O)[nH]c2cc1Cl` [H Cl Et H, 6-Chloro-7-ethyl-1,4-dihydroquinoxaline-2,3-dione], the Ki [1] is reported as 730 nM.

With `O=c1[nH]c2cc(F)c(F)c([N+](=O)[O-])c2[nH]c1=O` [NO2 F F H, 6,7-Difluoro-5-nitro-1,4-dihydro-2,3-quinoxalinedione] the “times less active than 6,7-dichloro-5-nitro-1,4-dihydroquinoxaline-2,3-dione at the glycine/NMDA receptor” value (glycine binding site) was “more than 20 times”, the Ki (glycine binding site; [6]) was 87 nM and the ED50 (mice; [7]) was 0.7 to 0.8 mg/kg. The ED100 (mice; i.v.) was 2.5 mg/kg, the ED50 (mice; [8]) was 0.7 to 0.8 mg/kg and the “ED50 (MES)” value (mice; i.v.) was 0.7 to 0.8 mg/kg. The “IV peak of action” value (mice; i.v.) was 1 min, the “% protection after 60 min.” value (mice; i.v., 2.5 mg/kg) was 0% and the “protection against MES after 60 min.” value (mice; i.v., after 60 min) was “no more protection was observed”. For the same molecule, the “times better in crossing the blood brain barrier than 6,7-dichloro-5-nitro-1,4-dihydroquinoxaline-2,3-dione” value [2] was “about 100 times”.

In the case of `Cc1ccc2[nH]c(=O)c(=O)[nH]c2c1` [H Me H H, 6-Methyl-1,4-dihydro-2,3-quinoxalinedione], the Ki [1, 9] is reported as 9000 nM.

For `O=C(O)C1CC2CC(CP(=O)(O)O)CCC2CN1` (stereo not shown) [LY274614], the “neuroprotective efficacy” value (neurons) is given as “have neuroprotective efficacy”.

For `c1ccc(C2(N3CCCCC3)CCCCC2)cc1` [PCP, phencyclidine], the “neuroprotective efficacy” value (neurons) is listed as “have neuroprotective efficacy both in vitro and in vivo”.

In the case of `O=C(O)c1cc(O)c2c(Cl)cc(Cl)cc2n1` [5,7-dichlorokynurenic acid], the “glycine site antagonism or affinity (words)” value [4] is listed as “relatively high receptor binding affinity in vitro” and the “penetration of the blood/brain barrier (words)” value ([5]; in vivo) is listed as “cannot penetrate the blood/brain barrier”.

`O=[N+]([O-])c1c(OCCCc2ccccc2)c(F)cc2nc(O)c(O)nc12` [NO2 O(CH2)3 Ph F H, 7-Fluoro-6(3-phenylpropoxy)-5-nitro-1,4-dihydroquinoxaline-2,3-dione] showed a Ki [1] of 6700 nM.

Work on `Cc1c([N+](=O)[O-])c([N+](=O)[O-])c(Cl)c2[nH]c(=O)c(=O)[nH]c12` [Cl NO2 NO2 Me, 5-Chloro-6,7-dinitro-8-methyl-2,3-quinoxalinedione] yielded a Ki [1] of 3800 nM.

`CCc1cc2[nH]c(=O)c(=O)[nH]c2cc1CC` [H Et Et H, 6,7-Diethyl-1,4-dihydroquinoxaline-2,3-dione] showed a Ki [1] of 800 nM.

In the case of `O=C(O)[C@@H]1C[C@H](CP(=O)(O)O)CCN1` [CGS 19755], the “neuroprotective efficacy” value (neurons) is given as “have neuroprotective efficacy”.

For `CCc1c(Cl)cc2nc(O)c(O)nc2c1[N+](=O)[O-]` [NO2 Et Cl H, 7-Chloro-6-ethyl-5-nitro-1,4-dihydroquinoxaline-2,3-dione], the Ki [1] was 200 nM.

In the case of `[N-]=[N+]=Nc1ccc2[nH]c(=O)c(=O)[nH]c2c1` [H N3 H H, 6-azidol-1,4-dihydroquinoxaline-2,3-dione], the Ki [1, 9] is reported as 910 nM, the “binding to the glycine binding site” value (glycine binding site; Table I, compared with other 6-substituted derivatives) is reported as “quite favorably binds” and the Ki (glycine binding site; Table I, read-out: Ki) is reported as 210 nM.
